Reference: BindingDB's records for doi:10.1016/j.bmcl.2015.06.096 (Vanderbilt University Medical Center, 2015)

Target: Metabotropic glutamate receptor 5 (Homo sapiens, UniProt P41594)
Assay: Positive allosteric modulation of human mGlu5 receptor expressed in HEK293 cells by calcium mobilization assay

Chain of Metabotropic glutamate receptor 5 (P41594 whole entry): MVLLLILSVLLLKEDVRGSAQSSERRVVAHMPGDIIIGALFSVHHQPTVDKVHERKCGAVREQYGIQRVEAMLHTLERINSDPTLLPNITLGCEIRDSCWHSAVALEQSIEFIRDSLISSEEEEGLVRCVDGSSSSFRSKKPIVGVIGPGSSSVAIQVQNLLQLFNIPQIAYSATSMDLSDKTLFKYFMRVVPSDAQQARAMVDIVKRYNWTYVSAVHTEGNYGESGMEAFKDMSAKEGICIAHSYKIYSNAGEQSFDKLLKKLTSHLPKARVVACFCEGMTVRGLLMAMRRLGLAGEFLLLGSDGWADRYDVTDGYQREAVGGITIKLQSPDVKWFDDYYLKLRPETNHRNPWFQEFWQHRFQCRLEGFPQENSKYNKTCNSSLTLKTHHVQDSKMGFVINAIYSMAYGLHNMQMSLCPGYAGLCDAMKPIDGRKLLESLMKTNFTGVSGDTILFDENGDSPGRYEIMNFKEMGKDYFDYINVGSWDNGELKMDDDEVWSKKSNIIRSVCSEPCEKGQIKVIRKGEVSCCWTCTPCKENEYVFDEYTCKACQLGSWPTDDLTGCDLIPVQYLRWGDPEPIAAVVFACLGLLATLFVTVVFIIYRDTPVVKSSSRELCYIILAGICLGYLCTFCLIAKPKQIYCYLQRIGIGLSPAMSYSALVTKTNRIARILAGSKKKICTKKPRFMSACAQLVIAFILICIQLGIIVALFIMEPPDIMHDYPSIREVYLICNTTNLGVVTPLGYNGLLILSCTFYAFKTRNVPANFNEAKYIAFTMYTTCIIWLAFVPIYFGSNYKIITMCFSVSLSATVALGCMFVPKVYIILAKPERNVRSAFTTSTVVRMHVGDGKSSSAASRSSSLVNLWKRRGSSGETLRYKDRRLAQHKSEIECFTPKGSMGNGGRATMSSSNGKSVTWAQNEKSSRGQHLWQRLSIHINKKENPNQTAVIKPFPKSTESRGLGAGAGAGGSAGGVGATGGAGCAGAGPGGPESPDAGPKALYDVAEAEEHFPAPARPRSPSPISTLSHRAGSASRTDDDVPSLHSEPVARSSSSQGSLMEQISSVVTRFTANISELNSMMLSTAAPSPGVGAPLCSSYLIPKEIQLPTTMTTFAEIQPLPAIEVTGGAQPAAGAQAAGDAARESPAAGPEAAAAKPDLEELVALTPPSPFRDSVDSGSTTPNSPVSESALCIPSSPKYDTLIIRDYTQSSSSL

O=C(c1c(F)cccc1F)N1CCc2nc(COc3cccc(F)c3)oc2C1
EC50: 323 nM
